For data set [1], the system named is K562 cells. The experiment in a line: cell viability (XTT) of imatinib-sensitive K562 cells. The data set is classed as cell-based, human. The note with it: K562; for viability at 500 µM / IC50: Homo sapiens, XTT; for viability at 500 µM: 0.5 mM, read-out: percentage of viable cells; for IC50: dose-response 5, 10, 25 and 50 μM; for efficacy in dose-response experiment (number of viable cells): 5, 10, 25 and 50 μM, compounds effective at concentrations as low as 5 μM. The method, then:
(§1) The K562 leukemic cell line is obtained from the pleural effusion of a patient with CML. This line is a good model for studying this disease. […] The K562 and ImaR cells are cultivated at 37° C. under 5% CO2 in an RPMI 1640 medium containing 5% fetal bovine serum and supplemented with sodium pyruvate and antibiotics (penicillin-streptomycin).
(§2) FIGS. 1 to 4 reflect the study of the cell viability.
(§3) After the addition of XTT reagent, the absorbance is measured at 490 nm.
as §3, §3
After adding XTT reagent, the absorbance is measured at 490 nm.

The subject of data set [2] is caspase-9. Nature of the data set: caspase-9 activity (Ac-LEHD-AMC) in K562 cells. The data set is classed as cell-based, human. The method, then:
(§4) The cells are lyzed and the caspase-9 activities are measured using 10 μg of proteins and Ac-LEHD-AMC. The fluorescence emission at 460 nm resulting from the release of AMC is then recorded.

Data set [3] relates to K562 cells. The experiment in a line: western blot of apoptosis and autophagy markers, K562 cells. The data set is classed as cell-based, human. The note with it: for expression of p62/SQSTM1: 82, 86, 112 at 2.5 μM, 15, 23, 191 at 10 μM; for type of programmed cell death induced: conclusion of Example 1, K562 and ImaR cells. On the procedure:
(§5) The cells are lyzed and 35 μg of proteins are separated by SDS-PAGE (12 or 14% polyacrylamide gel) and analyzed by western blot with antibodies specific to each of the markers.

The test system of data set [4] is ImaR cells. Nature of the data set: cell viability (XTT) of imatinib-resistant ImaR cells. The data set is classed as cell-based, human. The note with it: for efficacy in dose-response experiment (number of viable cells): 5, 10, 25 and 50 μM, compounds effective at concentrations as low as 5 μM; for viability at 500 µM / IC50: Homo sapiens, XTT; for viability at 500 µM: 0.5 mM, 24 hours, read-out: percentage of viable cells; for IC50: dose-response 5, 10, 25 and 50 μM, 24 or 48 hours, Example 1 (Table 1 codes). The method, then:
as §1, §2, §3, §3

Data set [5] relates to ImaR cells. The experiment in a line: western blot of apoptosis and autophagy markers, ImaR cells. The data set is classed as cell-based, human. The note with it: 24 hours; for expression of p62/SQSTM1: AICAR 1 mM, 82, 86, 112 at 2.5 μM, 15, 23, 191 at 10 μM. On the procedure:
as §5

Data set [6] deals with ImaR cells. Nature of the data set: flow cytometry analysis of the cell cycle, ImaR cells. The data set is classed as cell-based, human. On the procedure: The x-axis of the graph of FIG. 9 corresponds to the quantity of DNA marked with propidium iodide while the y-axis corresponds to the number of cells. […] The nucleii are marked with propidium iodide, then the proportion of cells in the different phases of the cell cycle (subG1, G0/G1, S, G2/M) is determined.

Data set [7] has as its system K562 cells. Nature of the data set: flow cytometry analysis of the cell cycle, K562 cells. In kind it is cell-based, human. On the procedure: The x-axis of the graph of FIG. 9 corresponds to the quantity of DNA marked with propidium iodide while the y-axis corresponds to the number of cells. […] The nuclei are marked with propidium iodide, then the proportion of cells in the different phases of the cell cycle (subG1, G0/G1, S, G2/M) is determined.

In data set [8] the test system is caspase-9. The experiment in a line: caspase-9 activity (Ac-LEHD-AMC) in ImaR cells. The data set is classed as cell-based, human. The note with it: 24 hours, imatinib 3 μM, 112 2.5 μM, 15 and 23 10 μM. On the procedure:
as §4

Data set [9] has as its system imatinib-resistant CML K562 cells. The experiment in a line: tumor growth of imatinib-resistant CML K562 cells in athymic nude mice. In kind it is in vivo. The note with it: 1 mg/kg; for Mean weight of the mice on the day of sacrifice: control group 18.63, in g (unit assumed); for Mass of tumors at the end of the campaign (% vs. control): sum of tumor masses on the day of sacrifice. The method, then:
The three compounds (86, 196 and 236) were tested at 1 mg/kg on the tumor growth of imatinib-resistant CML K562 cells in athymic nude mice. The tumors of the mice of each group are weighed on the day of sacrifice, and the sum of these masses constitutes a tumor growth index. This index is expressed as a percentage with respect to the growth of the control group (second line).

[10] abbreviates: 48 hours, Example 2 (Table 2 codes).
The mark [11] stands for this setting: 24 or 48 hours, Example 1 (Table 1 codes).
Where [12] appears, read: 24 hours, imatinib 3 μM, 112 at 2.5 μM, 15, 23, 49 at 10 μM.
The mark [13] stands for this setting: 24 hours, 82, 86, 112 at 2.5 μM, 15, 23, 191, 49 at 10 μM.

Read-outs that look alike come from different tables or passages of the source. Where only a bound is given, the exact number is not on record here.

On to `CCOC(=O)c1nnn([C@@H]2O[C@H](COC(C)=O)[C@@H](OC(C)=O)[C@H]2OC(C)=O)c1C(=O)c1ccc(C)cc1` [Compound 32, 1′-(4-ethoxycarbonyl-5-p-toluoyl-[1,2,3]-triazol-1-yl)-2′,3′,5′-tri-O-acetyl-β-D-ribofuranose], for which the viability at 500 µM in the data set with K562 cells [1] (setting [10]) is below 20%.
With `CCOC(=O)C#Cc1c(C(=O)OCC)nnn1Cc1ccc(C)cc1` [Compound 112, 1-(4-methylbenzyl)-4-ethoxycarbonyl-5-ethyl propiolate-1,2,3-triazole], the caspase-9 activity entry in the data set with caspase-9 [2] (K562, 24 hours, imatinib 3 μM, 112 2.5 μM, 15 and 23 10 μM) is reported as “activation”; in the data set with caspase-9 [8], “activation”. For the same molecule, the “pathway relaying the induced apoptosis” value with caspase-9 [2] (conclusion of Example 1, K562 and ImaR cells) was “intrinsic pathway”. Besides, the “expression of p62/SQSTM1” value is “increase in the expression” with K562 cells [3] (K562, 24 hours, AICAR 1 mM) and “increase in the expression” with ImaR cells [5]. Besides, the “PARP cleavage (fragment at 85 kDa)” value in the data set with K562 cells [3] (K562, 24 hours, imatinib 3 μM, 112 at 2.5 μM, 15, 23, 49 at 10 μM) is on record as “appearance of the characteristic cleavage fragment at 85 kDa”; with ImaR cells [5] (imatinib 3 μM, 112 at 2.5 μM, 15, 23, 49 at 10 μM), “appearance of the characteristic cleavage fragment at 85 kDa”. Further, the “type of programmed cell death induced” value in the data set with K562 cells [3] is recorded as “apoptosis alone”. Moreover, the viability at 500 µM with K562 cells [1] (24 hours) and in the data set with ImaR cells [4] was below 10% each time. Moreover, the 50% inhibitory concentration (IC50) in the data set with K562 cells [1] (setting [11]) and in the data set on ImaR cells [4] was around 2.5 µM in each case. For the same molecule, the “efficacy in dose-response experiment (number of viable cells)” value in the data set on K562 cells [1] and in the data set with ImaR cells [4] was “particularly effective” throughout. The “cells in phase G0/G1” value in the data set on ImaR cells [6] (setting [12]) and in the data set with K562 cells [7] (setting [12]) was “reduction” in each case. The “cells in the subG1 phase” value with ImaR cells [6] (setting [12]) and with K562 cells [7] (setting [12]) was “very pronounced accumulation” throughout.
`CCOC(=O)C#Cc1c(C(=O)OCC)nnn1C1OC(COC(C)=O)C(OC(C)=O)C(OC(C)=O)C1OC(C)=O` [Compound 196, 1′-(4-ethoxycarbonyl-5-ethyl propiolate-[1,2,3]-triazol-1-yl)-2′,3′,4′,6′-tetra-O-acetyl-β-D-glucopyranose]: in data set [9], the “inhibition of the tumor mass” value is “around 60%”, the “Mean weight of the mice on the day of sacrifice” value (from here on “Mean weight of the mice”) is 20.5 and the “Mass of tumors at the end of the campaign (% vs. control)” value (“Mass of tumors … (% vs. control)” below) is on record as 42 % vs. control.
For `CCOC(=O)c1nnn([C@@H]2O[C@H](COC(C)=O)[C@@H](OC(C)=O)[C@H]2OC(C)=O)c1-c1ccccc1` [Compound 86, 1′-(4-ethoxycarbonyl-5-phenyl-[1,2,3]-triazol-1-yl)-2′,3′,5′-tri-O-acetyl-β-D-ribofuranose], the “expression of p62/SQSTM1” value with K562 cells [3] (K562, 24 hours, AICAR 1 mM) was “increase in the expression”; in the data set with ImaR cells [5] it was “increase in the expression”. Besides, the “LC3 cleavage (LC3-I into LC3-II)” value is given as “cleaved” in the data set with K562 cells [3] (K562, 24 hours, AICAR 1 mM, 82, 86 at 2.5 μM, 15, 23, 191, 49 at 10 μM) and “cleaved” in the data set with ImaR cells [5] (AICAR 1 mM, 82, 86 at 2.5 μM, 15, 23, 191, 49 at 10 μM). Besides, the “type of programmed cell death induced” value in the data set with K562 cells [3] is “autophagy alone”. The viability at 500 µM in the data set on K562 cells [1] (24 hours) and with ImaR cells [4] was below 10% throughout. Further, the IC50 with K562 cells [1] (setting [11]) and in the data set on ImaR cells [4] was around 2.5 µM in each case. Also, the “efficacy in dose-response experiment (number of viable cells)” value with K562 cells [1] and in the data set with ImaR cells [4] was “particularly effective” throughout. Besides, the “proportion of cells in the G2/M phase” value in the data set with ImaR cells [6] (setting [13]) and in the data set on K562 cells [7] (setting [13]) was “increase” each time. Moreover, the “Mean weight of the mice” value in data set [9] is 18.43. Besides, the “Mass of tumors … (% vs. control)” value in [9] is reported as 69.6 % vs. control.
In the data set with K562 cells [1] (setting [10]), `CCCCCCC(=O)c1c(C(=O)OCC)nnn1[C@@H]1O[C@H](COC(C)=O)[C@@H](OC(C)=O)[C@H]1OC(C)=O` [Compound 30, 1′-(4-ethoxycarbonyl-5-heptanoyl-[1,2,3]-triazol-1-yl)-2′,3′,5′-tri-O-acetyl-β-D-ribofuranose] had an IC50 of around 5 µM.
On to `COC(=O)c1nnn([C@@H]2O[C@H](CO)[C@@H](O)[C@H]2O)c1I` [Compound 21, 1′-(4-methoxycarbonyl-5-iodo-[1,2,3]-triazol-1-yl)-β-D-ribofuranose], for which, in the data set with K562 cells [1] (setting [10]), the viability at 500 µM is below 20% and the 50% inhibitory concentration (IC50) is around 5 µM.
As to `C#Cc1c(C(=O)OC)nnn1[C@@H]1O[C@H](CO)[C@@H](O)[C@H]1O` [Compound 29, 1′-(4-methoxycarbonyl-5-ethynyl-[1,2,3]-triazol-1-yl)-β-D-ribofuranose], the viability at 500 µM with K562 cells [1] (setting [10]) is below 20%.
Take `CCOC(=O)c1nnn(Cc2ccc3ccccc3c2)c1I` [Compound 23]: the viability at 500 µM in the data set with K562 cells [1] (24 hours) and with ImaR cells [4] was below 10% in each case. Also, the IC50 with K562 cells [1] (setting [11]) is around 10 µM; in the data set on K562 cells [1] (setting [10]) it was around 5 µM; in the data set on ImaR cells [4] it was around 10 µM.
As for `CCCCCCCC#Cc1c(CCCCCCC)nnn1[C@@H]1O[C@H](COC(C)=O)[C@@H](OC(C)=O)[C@H]1OC(C)=O` [Compound 176, 1′-(4-heptyl-5-(non-1-yn-1-yl)-[1,2,3]-triazol-1-yl)-2′,3′,5′-tri-O-acetyl-β-D-ribofuranose], the viability at 500 µM in the data set with K562 cells [1] (24 hours) and in the data set on ImaR cells [4] was below 10% throughout.
In the case of `CCOC(=O)c1nnn([C@@H]2O[C@H](CO)[C@H]3OC(C)(C)O[C@H]32)c1-c1cccs1` [Compound 236, 1′-(4-ethoxycarbonyl-5-(2-thienyl)-[1,2,3]-triazol-1-yl)-2′,3′-O-isopropylidene-β-D-ribofuranose], in data set [9], the “Mean weight of the mice” value is reported as 20.14 and the “Mass of tumors … (% vs. control)” value was 60.3 % vs. control.
For the molecule `CCOC(=O)C#Cc1c(C(=O)OCC)nnn1Cc1ccc2ccccc2c1` [Compound 25], the viability at 500 µM in the data set on K562 cells [1] (24 hours) and in the data set with ImaR cells [4] was below 10% throughout.
`OC[C@H]1O[C@@H](n2nnc(-c3ccccc3)c2I)[C@H](O)[C@@H]1O` [Compound 24, 1′-(4-phenyl-5-iodo-[1,2,3]-triazol-1-yl)-β-D-ribofuranose] yielded a concentration for half-maximal inhibition (IC50) with K562 cells [1] (setting [10]) of around 5 µM.
